Columns and labels:
[1] = bifidobacterium adolescentis, 12 h, 2 µM
Description: The drug is tested on Bifidobacterium adolescentis strain: ATCC 15703 for biotransformation. The drug concentrations were measured before and after a 12-h incubation by liquid-chromatography-coupled mass spectrometry (LC–MS)

[2] = segatella copri, 12 h, 2 µM
Description: The drug is tested on Prevotella copri strain: DSM18205 for biotransformation. The drug concentrations were measured before and after a 12-h incubation by liquid-chromatography-coupled mass spectrometry (LC–MS)

[3] = The drug is tested on Enterobacter cancerogenus strain: ATCC35316 for biotransformation. The drug concentrations were measured before and after a 12-h incubation by liquid-chromatography-coupled mass spectrometry (LC–MS); conditions: 2 µM
[4] = The drug is tested on Bifidobacterium breve strain: DSM20213 for biotransformation. The drug concentrations were measured before and after a 12-h incubation by liquid-chromatography-coupled mass spectrometry (LC–MS); conditions: 2 µM
[5] = anaerostipes sp., 12 h, 2 µM
Description: The drug is tested on Anaerostipes sp. strain: fecal isolate for biotransformation. The drug concentrations were measured before and after a 12-h incubation by liquid-chromatography-coupled mass spectrometry (LC–MS)

[6] = The drug is tested on Clostridium sporogenes strain: ATCC15579 for biotransformation. The drug concentrations were measured before and after a 12-h incubation by liquid-chromatography-coupled mass spectrometry (LC–MS); conditions: 2 µM
[7] = bacteroides fragilis, 12 h, 2 µM
Description: The drug is tested on Bacteroides fragilis strain: 3397 (T10) for biotransformation. The drug concentrations were measured before and after a 12-h incubation by liquid-chromatography-coupled mass spectrometry (LC–MS)

[8] = limosilactobacillus reuteri cf48-3a, 12 h, 2 µM
Description: The drug is tested on Lactobacillus reuteri CF48-3A strain: BEI HM-102 for biotransformation. The drug concentrations were measured before and after a 12-h incubation by liquid-chromatography-coupled mass spectrometry (LC–MS)

[9] = The drug is tested on Edwardsiella tarda strain: ATCC23685 for biotransformation. The drug concentrations were measured before and after a 12-h incubation by liquid-chromatography-coupled mass spectrometry (LC–MS); conditions: 2 µM
[10] = The drug is tested on Bacteroides fragilis strain: HMW610 for biotransformation. The drug concentrations were measured before and after a 12-h incubation by liquid-chromatography-coupled mass spectrometry (LC–MS); conditions: 2 µM
[11] = bacteroides thetaiotaomicron, 12 h, 2 µM
Description: The drug is tested on Bacteroides thetaiotaomicron strain: VPI-5482 for biotransformation. The drug concentrations were measured before and after a 12-h incubation by liquid-chromatography-coupled mass spectrometry (LC–MS)

[12] = roseburia intestinalis, 12 h, 2 µM
Description: The drug is tested on Roseburia intestinalis strain: L1-82 for biotransformation. The drug concentrations were measured before and after a 12-h incubation by liquid-chromatography-coupled mass spectrometry (LC–MS)

[13] = bacteroides thetaiotaomicron, 12 h, 2 µM; remark: listed apart in the source
Description: The drug is tested on Bacteroides thetaiotaomicron strain: 7330 for biotransformation. The drug concentrations were measured before and after a 12-h incubation by liquid-chromatography-coupled mass spectrometry (LC–MS)

[14] = bacteroides fragilis, 12 h, 2 µM; remark: listed apart in the source
Description: The drug is tested on Bacteroides fragilis strain: NCTC 9343 for biotransformation. The drug concentrations were measured before and after a 12-h incubation by liquid-chromatography-coupled mass spectrometry (LC–MS)

[15] = The drug is tested on Clostridium scindens strain: ATCC35704 for biotransformation. The drug concentrations were measured before and after a 12-h incubation by liquid-chromatography-coupled mass spectrometry (LC–MS); conditions: 2 µM
[16] = The drug is tested on Collinsella aerofaciens strain: ATCC25986 for biotransformation. The drug concentrations were measured before and after a 12-h incubation by liquid-chromatography-coupled mass spectrometry (LC–MS); conditions: 2 µM
[17] = The drug is tested on Enterococcus faecalis strain: V583 for biotransformation. The drug concentrations were measured before and after a 12-h incubation by liquid-chromatography-coupled mass spectrometry (LC–MS); conditions: 2 µM
[18] = The drug is tested on Anaerotruncus colihominis strain: DSM17241 for biotransformation. The drug concentrations were measured before and after a 12-h incubation by liquid-chromatography-coupled mass spectrometry (LC–MS); conditions: 2 µM
[19] = The drug is tested on Alistipes indistinctus strain: DSM22520 for biotransformation. The drug concentrations were measured before and after a 12-h incubation by liquid-chromatography-coupled mass spectrometry (LC–MS); conditions: 2 µM

Compound	Bacterial Biotransformation [1]	Bacterial Biotransformation [2]	Bacterial Biotransformation [3]	Bacterial Biotransformation [4]	Bacterial Biotransformation [5]	Bacterial Biotransformation [6]	Bacterial Biotransformation [7]	Bacterial Biotransformation [8]	Bacterial Biotransformation [9]	Bacterial Biotransformation [10]	Bacterial Biotransformation [11]	Bacterial Biotransformation [12]	Bacterial Biotransformation [13]	Bacterial Biotransformation [14]	Bacterial Biotransformation [15]	Bacterial Biotransformation [16]	Bacterial Biotransformation [17]	Bacterial Biotransformation [18]	Bacterial Biotransformation [19]
CCN(CC)C(=O)C1(c2ccccc2)CC1CN (configuration not stated)	Compound NOT metabolized	Compound NOT metabolized	Compound NOT metabolized	Compound NOT metabolized	Compound NOT metabolized	Compound NOT metabolized	Compound NOT metabolized	Compound NOT metabolized	Compound NOT metabolized	Compound NOT metabolized	Compound NOT metabolized	Compound NOT metabolized	Compound NOT metabolized	Compound NOT metabolized	Compound NOT metabolized	Compound NOT metabolized	Compound NOT metabolized	Compound NOT metabolized	–
Br.COc1ccc2c(c1)[C@]13CCCC[C@@H]1[C@H](C2)N(C)CC3.O [DEXTROMETHORPHAN HYDROBROMIDE]	Compound NOT metabolized	–	Compound NOT metabolized	Compound NOT metabolized	Compound NOT metabolized	Compound NOT metabolized	Compound NOT metabolized	Compound NOT metabolized	Compound NOT metabolized	–	Compound NOT metabolized	Compound NOT metabolized	Compound NOT metabolized	Compound NOT metabolized	Compound NOT metabolized	Compound NOT metabolized	Compound NOT metabolized	Compound NOT metabolized	Compound NOT metabolized
CC(C)[C@H]1CC[C@H](C(=O)N[C@H](Cc2ccccc2)C(=O)O)CC1 [NATEGLINIDE]	Compound NOT metabolized	Compound NOT metabolized	Compound NOT metabolized	Compound NOT metabolized	Compound NOT metabolized	Compound NOT metabolized	Compound NOT metabolized	Compound NOT metabolized	Compound NOT metabolized	Compound metabolized	Compound NOT metabolized	–	Compound NOT metabolized	–	Compound NOT metabolized	Compound NOT metabolized	Compound NOT metabolized	Compound NOT metabolized	Compound NOT metabolized
COCCc1ccc(OCC(O)CNC(C)C)cc1.COCCc1ccc(OCC(O)CNC(C)C)cc1.O=C(O)C(O)C(O)C(=O)O (configuration not stated) [METOPROLOL TARTRATE]	Compound NOT metabolized	–	Compound NOT metabolized	Compound NOT metabolized	Compound NOT metabolized	Compound NOT metabolized	Compound NOT metabolized	Compound NOT metabolized	Compound NOT metabolized	Compound NOT metabolized	Compound NOT metabolized	Compound NOT metabolized	–	Compound NOT metabolized	Compound NOT metabolized	Compound NOT metabolized	Compound NOT metabolized	Compound NOT metabolized	–
CN(C)CC(c1ccc(O)cc1)C1(O)CCCCC1.O=C(O)CCC(=O)O (configuration not stated) [DESVENLAFAXINE SUCCINATE]	Compound NOT metabolized	Compound NOT metabolized	Compound NOT metabolized	Compound NOT metabolized	Compound NOT metabolized	Compound NOT metabolized	Compound NOT metabolized	–	Compound NOT metabolized	Compound NOT metabolized	Compound NOT metabolized	Compound NOT metabolized	–	Compound NOT metabolized	Compound NOT metabolized	Compound NOT metabolized	Compound NOT metabolized	Compound NOT metabolized	–
CN1CCOC(c2ccccc2)c2ccccc2C1 (configuration not stated) [NEFOPAM]	Compound NOT metabolized	Compound NOT metabolized	Compound NOT metabolized	Compound NOT metabolized	Compound NOT metabolized	–	Compound NOT metabolized	Compound NOT metabolized	Compound NOT metabolized	Compound NOT metabolized	Compound NOT metabolized	Compound NOT metabolized	Compound NOT metabolized	Compound NOT metabolized	Compound NOT metabolized	Compound NOT metabolized	Compound NOT metabolized	Compound NOT metabolized	–
CCCN1C[C@H](CSC)C[C@@H]2c3cccc4[nH]cc(c34)C[C@H]21.CS(=O)(=O)O [PERGOLIDE MESYLATE]	Compound NOT metabolized	Compound NOT metabolized	Compound NOT metabolized	Compound NOT metabolized	Compound NOT metabolized	Compound NOT metabolized	Compound NOT metabolized	Compound NOT metabolized	–	–	Compound NOT metabolized	Compound NOT metabolized	Compound NOT metabolized	Compound NOT metabolized	Compound NOT metabolized	Compound NOT metabolized	Compound NOT metabolized	Compound NOT metabolized	Compound NOT metabolized
COc1ccc(Cc2nccc3cc(OC)c(OC)cc23)cc1OC [PAPAVERINE]	Compound NOT metabolized	Compound NOT metabolized	Compound NOT metabolized	Compound NOT metabolized	Compound NOT metabolized	Compound NOT metabolized	Compound NOT metabolized	Compound NOT metabolized	Compound NOT metabolized	–	Compound NOT metabolized	Compound NOT metabolized	Compound NOT metabolized	–	Compound NOT metabolized	Compound NOT metabolized	Compound NOT metabolized	Compound NOT metabolized	–
CN1CCC(=C2c3ccccc3CC(=O)c3sccc32)CC1.O=C(O)/C=C/C(=O)O [KETOTIFEN FUMARATE]	Compound NOT metabolized	Compound NOT metabolized	Compound NOT metabolized	Compound NOT metabolized	Compound NOT metabolized	Compound NOT metabolized	Compound NOT metabolized	Compound NOT metabolized	Compound NOT metabolized	Compound NOT metabolized	Compound NOT metabolized	Compound NOT metabolized	Compound NOT metabolized	Compound NOT metabolized	Compound NOT metabolized	Compound NOT metabolized	Compound NOT metabolized	Compound NOT metabolized	–
